# According to patent publication US20250213533A1 (GH RESEARCH IRELAND LIMITED, priority 2022, published 2025):
# Tested on: patients with postpartum depression (PPD)
# Assay: Clinical trial of inhaled 5-MeO-DMT (IDR) in postpartum depression; one patient so far, 6 mg then 12 mg
# Conditions: 1 patient
# Description: The single-arm, open-label clinical trial will involve 15 adult female patients with clinically diagnosed postpartum depression (PPD).
# The second dose (12 mg) will only be administered if: • a. […] The 6 mg dose was safe and well-tolerated according to the investigator, • c. Any psychoactive effects (PsE) of the prior dose have subsided, and • d. Pre-dose vital parameters and forced expiratory volume in one second (FEV1) are in normal range, or if outside of the normal range, are not clinically significant according to the investigator. • 3. Similarly, a third dose (18 mg) will only be administered if: • a. […] The 12 mg dose was safe and well-tolerated according to the investigator, and • c. Any PsE of the prior dose have subsided, and • d. Pre-dose vital parameters and forced expiratory volume in one second (FEV1) are in normal range, or if outside of the normal range, are not clinically significant according to the investigator.
# The patients will be assessed for a peak psychedelic experience (based on a patient-scored visual analogue scale, the PE scale), sedation, and other endpoints after dosing. Follow-up visits are planned for Day 1, and Day 7 after the dosing day.
# The following criteria must be met by all patients considered for clinical trial participation: • 1. Is female and in the age range between 18 and 45 years (inclusive) at screening. • 2. Has a body mass index (BMI) in the range of 18.5 and 35 kg/m^2 (inclusive) at screening. • 3. Meets the trial criteria for PPD as assessed by a trial psychiatrist or registered psychologist: • a. Diagnosis of Major Depressive Disorder without psychotic features, confirmed by the Mini-International Neuropsychiatric Interview (MINI), with peri-partum onset that began no earlier than gestation and no later than the first 4 weeks postpartum. • b. Has a Montgomery-Åsberg Depression Rating Scale (MADRS) total score of equal to or greater than 28 at screening and pre-dose on Day 0. • 6. […] Patients must have a negative pregnancy test at screening and on the pre-test day (Day −1). • 5. Is willing to delay start of other antidepressant or anxiety medication until after the end of the trial at Day 7 and agrees to keep any psychotherapy unchanged during the trial.
# A potential patient who meets any of the following key exclusion criteria will be excluded from participation in this trial: • 1. Has, based on history, psychiatric assessment, and evaluation of the MINI, a current or prior diagnosis of bipolar disorder, a manic or hypomanic episode, a psychotic disorder, Major Depressive Disorder (MDD) or other mood disorder with psychotic features, obsessive compulsive disorder, post-traumatic stress disorder (PTSD), autism spectrum disorder, borderline personality disorder, schizophrenia, delusional disorder, paranoid personality disorder, schizoaffective disorder, clinically significant intellectual disability, or any other psychiatric comorbidity that renders the patient unsuitable for the trial according to the investigator's judgment. • 2. Has one or more first or second degree relatives with a current or previously diagnosed bipolar disorder, psychotic disorder or other mood disorder (including MDD) with psychotic features. • 3. Is in the judgement of a trial psychiatrist or registered psychologist, at significant risk for suicide based on history, psychiatric assessment, and evaluation of suicidal ideation and suicidal behaviour based on the Columbia-Suicide Severity Rating Scale (C-SSRS). • 4. Has taken anti-depressive medication within 14 days or 5 half-lives (whichever is longer) prior to dosing (exception: within the last 5 weeks in the case of fluoxetine). • 5.
smiles,measurement,setting,value
COc1ccc2[nH]cc(CCN(C)C)c2c1 [5-MeO-DMT],"ECG (3 hours), safety laboratory analyses (7 days), CADSS (3 hours, 1 day, 7 days)",,unremarkable
same,standard criteria for MADRS remission (total score equal or less than 10),,fulfilled
same,standard criteria for MADRS response (at least 50% improvement from baseline),,fulfilled
same,time to clinical response after administration,,≤ 2 h
same,tolerability of the inhalation procedure,,well tolerated with no inhalation-related adverse events
same,MADRS Apparent sadness improvement,2hr,5
same,MADRS Apparent sadness score,2hr,0
same,MADRS Concentration Difficulties improvement,2hr,0
same,MADRS Concentration Difficulties score,2hr,0
same,MADRS Inability to Feel improvement,2hr,3
same,MADRS Inability to Feel score,2hr,0
same,MADRS Inner Tension improvement,2hr,5
same,MADRS Inner Tension score,2hr,0
same,MADRS Lassitude improvement,2hr,3
same,MADRS Lassitude score,2hr,0
same,MADRS Pessimistic Thoughts improvement,2hr,4
same,MADRS Pessimistic Thoughts score,2hr,0
same,MADRS Reduced Sleep improvement,2hr,0
same,MADRS Reduced Sleep score,2hr,5
same,MADRS Reduced appetite improvement,2hr,0
same,MADRS Reduced appetite score,2hr,0
same,MADRS Reported sadness improvement,2hr,4
same,MADRS Reported sadness score,2hr,0
same,MADRS Suicidal Thoughts improvement,2hr,0
same,MADRS Suicidal Thoughts score,2hr,0
same,BIMF TOTAL score,Day 0,92
same,BIMF item 1 (I am a good mother) score,Day 0,6
same,BIMF item 2 (I feel rested) score,Day 0,0
same,BIMF item 3 (comfortable with the way I've chosen to feed my baby) score,Day 0,6
same,BIMF item 4 (My baby and I understand each other) score,Day 0,5
same,BIMF item 5 (able to relax and enjoy time with my baby) score,Day 0,5
same,BIMF item 6 (people I can trust to care for my baby when I need a break) score,Day 0,6
same,BIMF item 8 (getting enough adult interaction) score,Day 0,6
same,BIMF item 9 (getting enough encouragement from other people) score,Day 0,5
same,BIMF item 10 (trust my own feelings (instincts) in taking care of my baby) score,Day 0,5
same,BIMF item 11 (take a little time each week to do something for myself) score,Day 0,5
same,BIMF item 12 (taking good care of my baby's physical needs) score,Day 0,6
same,BIMF item 13 (taking good care of my physical needs) score,Day 0,4
same,BIMF item 14 (good decisions about my baby's health and well being) score,Day 0,6
same,BIMF item 15 (My baby and I are getting into a routine) score,Day 0,5
same,BIMF item 16 (I worry about how other people judge me (as a mother)) score,Day 0,3
same,BIMF item 17 (able to take care of my baby and my other responsibilities) score,Day 0,5
same,BIMF item 18 (Anxiety or worry often interferes with my mothering ability) score,Day 0,2
same,BIMF item 19 (getting better at taking care of my baby) score,Day 0,0
same,BIMF item 20 (satisfied with the job I am doing as a new mother) score,Day 0,6
same,"adverse events (cramping left abdominal pain, headache)",Day 0,"mild, short-lasting and resolved spontaneously"
same,BIMF functional domain Adjustment score,"Day 0, maximum possible 12",5
same,BIMF functional domain Infant Care score,"Day 0, maximum possible 12",12
same,BIMF functional domain Mother-Child Interaction score,"Day 0, maximum possible 18",15
same,BIMF functional domain Self Care score,"Day 0, maximum possible 18",9
same,BIMF functional domain Social Support score,"Day 0, maximum possible 18",17
same,BIMF functional domain Management score,"Day 0, maximum possible 36",28
same,BIMF functional domain Psychological Well-being score,"Day 0, maximum possible 60",44
same,BPRS Anxiety improvement,Day 1,6
same,BPRS Anxiety score,Day 1,1
same,BPRS Blunted affect improvement,Day 1,0
same,BPRS Blunted affect score,Day 1,1
same,BPRS Conceptual disorganization improvement,Day 1,0
same,BPRS Conceptual disorganization score,Day 1,1
same,BPRS Depressive Mood improvement,Day 1,5
same,BPRS Depressive Mood score,Day 1,1
same,BPRS Disorientation improvement,Day 1,0
same,BPRS Disorientation score,Day 1,1
same,BPRS Emotional withdrawal improvement,Day 1,4
same,BPRS Emotional withdrawal score,Day 1,1
same,BPRS Excitement improvement,Day 1,1
same,BPRS Excitement score,Day 1,1
same,BPRS Grandiosity improvement,Day 1,0
same,BPRS Grandiosity score,Day 1,1
same,BPRS Guilt feelings improvement,Day 1,5
same,BPRS Guilt feelings score,Day 1,1
same,BPRS Hallucinatory behaviour improvement,Day 1,0
same,BPRS Hallucinatory behaviour score,Day 1,1
same,BPRS Hostility improvement,Day 1,0
same,BPRS Hostility score,Day 1,1
same,BPRS Mannerisms and Posturing improvement,Day 1,0
same,BPRS Mannerisms and Posturing score,Day 1,1
same,BPRS Motor retardation improvement,Day 1,0
same,BPRS Motor retardation score,Day 1,1
same,BPRS Somatic Concern improvement,Day 1,5
same,BPRS Somatic Concern score,Day 1,1
same,BPRS Suspiciousness improvement,Day 1,0
same,BPRS Suspiciousness score,Day 1,1
same,BPRS Tension score,Day 1,1
same,BPRS Uncooperativeness improvement,Day 1,0
same,BPRS Uncooperativeness score,Day 1,1
same,BPRS Unusual Thought Content improvement,Day 1,0
same,BPRS Unusual Thought Content score,Day 1,1
same,MADRS Apparent sadness improvement,Day 1,5
same,MADRS Apparent sadness score,Day 1,0
same,MADRS Concentration Difficulties improvement,Day 1,0
same,MADRS Concentration Difficulties score,Day 1,0
same,MADRS Inability to Feel improvement,Day 1,3
same,MADRS Inability to Feel score,Day 1,0
same,MADRS Inner Tension improvement,Day 1,5
same,MADRS Inner Tension score,Day 1,0
same,MADRS Lassitude improvement,Day 1,3
same,MADRS Lassitude score,Day 1,0
same,MADRS Pessimistic Thoughts improvement,Day 1,4
same,MADRS Pessimistic Thoughts score,Day 1,0
same,MADRS Reduced Sleep improvement,Day 1,5
same,MADRS Reduced Sleep score,Day 1,0
same,MADRS Reduced appetite improvement,Day 1,0
same,MADRS Reduced appetite score,Day 1,0
same,MADRS Reported sadness improvement,Day 1,4
same,MADRS Reported sadness score,Day 1,0
same,MADRS Suicidal Thoughts improvement,Day 1,0
same,MADRS Suicidal Thoughts score,Day 1,0
same,BIMF item 1 (I am a good mother) score,Day 7,6
same,BIMF item 2 (I feel rested) score,Day 7,2
same,BIMF item 3 (comfortable with the way I've chosen to feed my baby) score,Day 7,6
same,BIMF item 4 (My baby and I understand each other) score,Day 7,5
same,BIMF item 5 (able to relax and enjoy time with my baby) score,Day 7,6
same,BIMF item 6 (people I can trust to care for my baby when I need a break) score,Day 7,6
same,BIMF item 8 (getting enough adult interaction) score,Day 7,6
same,BIMF item 9 (getting enough encouragement from other people) score,Day 7,6
same,BIMF item 10 (trust my own feelings (instincts) in taking care of my baby) score,Day 7,6
